Legend:
[1] = tested on: formalin-induced pain model in rats; assay: Formalin pain model, nociceptive behaviors; assay type: in vivo, Sprague-Dawley rats; settings: Experiment Two
Experimental: The formalin model is a fast, reliable model used to assess potential analgesics ability to block inflammatory pain. The analgesic effects of test article combinations on pain generation are assayed using the formalin-induced pain model in rats. Adult male Sprague-Dawley rats are administered intraperitoneally study drugs (vehicle, TCA, steroid or TCA/Steroid test article combinations) once daily for 2 days (day −2 and day −1) and 30 minutes prior to the formalin injection day on day 0 (time=0). […] To elicit a pain response, dilute formalin (2% in saline) is injected under the skin of the plantar surface of the right hindpaw. The animal is placed in an observation chamber. The pain response is a characteristic biphasic response pattern of nociceptive behaviors (lifting, licking, and biting of the injected paw). Two distinct periods of nociceptive behaviors/activity are observed and recorded: an early phase (phase I) lasting the first 5-10 min and a late phase (phase II) lasting 20-40 min after the injection of formalin. One hour of data is collected (time spent displaying pain behavior) by a blinded observer using a stopwatch. Results are expressed as the number of pain behaviors per 5 minute periods (Table 8 and Table 9).

[2] = tested on: carrageenan-induced pain model in rats; assay: Carrageenan pain model, mechanical allodynia by Von Frey filaments; assay type: in vivo, Sprague-Dawley rats; settings: for Mean AUC ± SEM: AUC from 20 minutes through 120 minutes following carrageenan injection; for Mean change from baseline ± SEM: Experiment Two; for mean change from baseline: Table 4
Experimental: The carrageenan model is a fast, reliable model used to assess the ability of analgesics to block inflammatory pain. The analgesic effects of test article combinations on pain generation are assayed using the carrageenan-induced pain model in rats. Adult male Sprague-Dawley rats are administered study drugs intraperitoneally (vehicle, tricyclic compound (TCA), steroid or TCA/Steroid test article combinations) once daily for 2 days (day −2 and day −1) and 30 minutes prior to the carrageenan injection on day 0 (time=0). For the carrageenan injection, animals are lightly anesthetized and 0.1 ml of 2% carrageenan is injected into the plantar surface of the right hind paw. The positive control diclofenac at a dose of 25 mg/kg is administered intraperitoneally immediately before the carrageenan injection. Paw volumes (right and left) are measured using a plathysmometer before drug administration on day −2 and serve as a baseline measurement. The paw volumes are measured again two hours post carrageenan injection. The degree of mechanical allodynia is measured by a blinded observer using Von Frey filaments applied to the plantar surface of the hind paws in an increasing numerical order. Each filament increases the force applied on the paw. The filaments are applied until animal paw withdrawal is achieved. This procedure is carried out before drug administration (day −2), on day −1 and on day 0 at time=0, 20, 40, 60, 80 and 120 minutes post-carrageenan. The force (expressed in grams) required for paw withdrawal after carrageenan injection is subtracted from the force required for paw withdrawal before carrageenan injection. Results are expressed as mean change from baseline across five timepoints post carrageenan injection in Table 4.
For a synergy calculation, experimental data from the carrageenan study are fitted to a median-effect model and used to calculate the parameters' median-effect dose (Dm), slope (m), correlation coefficient (r), combination index (CI) and dose-reduction index (DRI). In addition, the probability of pain inhibition occurring after single-component (nortriptyline) versus the combination drug treatments are calculated from the negative change from baseline data using a Bayesian sensitivity analysis. The likelihood of pain inhibition is characterized for nortriptyline administered alone (1 mg/kg or 3 mg/kg) versus the fixed-dose combination treatments [prednisolone (0.3 mg/kg):nortriptyline (1 mg/kg) or prednisolone (1 mg/kg):nortriptyline (3 mg/kg)] each evaluated at 60 and 80 minutes for analgesic effect.
In another example, the effects of test article combinations on pain inhibition were assayed using the carrageenan model in rodents. Desipramine was tested alone and in combination at 0.3, 1, and 3 mg/kg and prednisolone was tested similarly at 0.3, 1 and 3 mg/kg IP.

CNCCC=C1c2ccccc2CCc2ccccc21 [Nortriptyline]
Mean number of behaviors per 5 minute block ([1]; 1 mg/kg, 50 minutes): 266.0 ± 16.6
Mean number of behaviors per 5 minute block ([1]; 1 mg/kg, 55 minutes): 192.0 ± 38.3
Mean number of behaviors per 5 minute block ([1]; 1 mg/kg, 60 minutes): 170.0 ± 46.6
Mean number of behaviors per 5 minute block ([1]; 3 mg/kg, 5 minutes): 228.0 ± 25.1
Mean number of behaviors per 5 minute block ([1]; 3 mg/kg, 10 minutes): 28.0 ± 12.3
Mean number of behaviors per 5 minute block ([1]; 3 mg/kg, 15 minutes): 10.0 ± 6.2
Mean number of behaviors per 5 minute block ([1]; 3 mg/kg, 20 minutes): 96.0 ± 43.8
Mean number of behaviors per 5 minute block ([1]; 3 mg/kg, 25 minutes): 162.0 ± 44.0
Mean number of behaviors per 5 minute block ([1]; 3 mg/kg, 30 minutes): 200.0 ± 45.0
Mean number of behaviors per 5 minute block ([1]; 3 mg/kg, 35 minutes): 217.0 ± 47.8
Mean number of behaviors per 5 minute block ([1]; 3 mg/kg, 40 minutes): 216.0 ± 47.3
Mean number of behaviors per 5 minute block ([1]; 3 mg/kg, 45 minutes): 220.0 ± 48.1
Mean number of behaviors per 5 minute block ([1]; 3 mg/kg, 50 minutes): 224.0 ± 42.0
Mean number of behaviors per 5 minute block ([1]; 3 mg/kg, 55 minutes): 247.0 ± 36.2
Mean number of behaviors per 5 minute block ([1]; 3 mg/kg, 60 minutes): 188.0 ± 36.8
Mean AUC ± SEM ([2]; 1 mg/Kg): 1895 ± 547.01
Mean AUC ± SEM ([2]; 3 mg/Kg): 3082 ± 275.81
Mean change from baseline ± SEM ([2]; first set of rows, 1 mg/kg, 20 minutes): 16.94 ± 7.35 g
Mean change from baseline ± SEM ([2]; first set of rows, 1 mg/kg, 40 minutes): 17.01 ± 7.37 g
Mean change from baseline ± SEM ([2]; first set of rows, 1 mg/kg, 60 minutes): 22.36 ± 4.36 g
Mean change from baseline ± SEM ([2]; first set of rows, 1 mg/kg, 80 minutes): 29.59 ± 4.80 g
Mean change from baseline ± SEM ([2]; first set of rows, 1 mg/kg, 120 minutes): 37.64 ± 5.20 g
Mean change from baseline ± SEM ([2]; first set of rows, 3 mg/kg, 20 minutes): 5.83 ± 6.21 g
Mean change from baseline ± SEM ([2]; first set of rows, 3 mg/kg, 40 minutes): 5.83 ± 6.21 g
Mean change from baseline ± SEM ([2]; first set of rows, 3 mg/kg, 60 minutes): 12.87 ± 5.09 g
Mean change from baseline ± SEM ([2]; first set of rows, 3 mg/kg, 80 minutes): 15.84 ± 5.10 g
Mean change from baseline ± SEM ([2]; first set of rows, 3 mg/kg, 120 minutes): 35.98 ± 4.09 g
Mean change from baseline ± SEM ([2]; second set of rows, 1 mg/kg, 20 minutes): 17.00 ± 6.43 g
Mean change from baseline ± SEM ([2]; second set of rows, 1 mg/kg, 40 minutes): -4.25 ± 4.25 g
Mean change from baseline ± SEM ([2]; second set of rows, 1 mg/kg, 60 minutes): 32.50 ± 4.96 g
Mean change from baseline ± SEM ([2]; second set of rows, 1 mg/kg, 80 minutes): 29.75 ± 4.25 g
Mean change from baseline ± SEM ([2]; second set of rows, 1 mg/kg, 120 minutes): 33.88 ± 5.21 g
Mean change from baseline ± SEM ([2]; second set of rows, 3 mg/kg, 20 minutes): 17.00 ± 6.43 g
Mean change from baseline ± SEM ([2]; second set of rows, 3 mg/kg, 40 minutes): 0.00 ± 6.43 g
Mean change from baseline ± SEM ([2]; second set of rows, 3 mg/kg, 60 minutes): 17.00 ± 6.43 g
Mean change from baseline ± SEM ([2]; second set of rows, 3 mg/kg, 80 minutes): 0.00 ± 0.00 g
Mean change from baseline ± SEM ([2]; second set of rows, 3 mg/kg, 120 minutes): 0.00 ± 0.00 g
mean change from baseline ([2]; 1 mg/kg ip, 20 minutes post carrageenan): 25.50 ± 7.90 grams
mean change from baseline ([2]; 1 mg/kg ip, 40 minutes post carrageenan): −4.70 ± 8.13 grams
mean change from baseline ([2]; 1 mg/kg ip, 60 minutes post carrageenan): −59.30 ± 10.6 grams
mean change from baseline ([2]; 1 mg/kg ip, 80 minutes post carrageenan): −99.70 ± 13.75 grams
mean change from baseline ([2]; 1 mg/kg ip, 120 minutes post carrageenan): −146.90 ± 19.62 grams
mean change from baseline ([2]; 3 mg/kg ip, 20 minutes post carrageenan): 7.40 ± 10.10 grams
mean change from baseline ([2]; 3 mg/kg ip, 40 minutes post carrageenan): −49.20 ± 11.54 grams
mean change from baseline ([2]; 3 mg/kg ip, 60 minutes post carrageenan): −109.20 ± 11.54 grams
mean change from baseline ([2]; 3 mg/kg ip, 80 minutes post carrageenan): −169.20 ± 11.54 grams
mean change from baseline ([2]; 3 mg/kg ip, 120 minutes post carrageenan): −205.40 ± 11.35 grams
mean change from baseline ([2]; 10 mg/kg ip, 20 minutes post carrageenan): −4.00 ± 8.20 grams
mean change from baseline ([2]; 10 mg/kg ip, 40 minutes post carrageenan): −68.60 ± 10.46 grams
mean change from baseline ([2]; 10 mg/kg ip, 60 minutes post carrageenan): −112.80 ± 13.51 grams
mean change from baseline ([2]; 10 mg/kg ip, 80 minutes post carrageenan): −157.00 ± 17.21 grams
mean change from baseline ([2]; 10 mg/kg ip, 120 minutes post carrageenan): −185.80 ± 20.18 grams
mean change from baseline ([2]; 20 mg/kg ip, 20 minutes post carrageenan): −17.60 ± 5.89 grams
mean change from baseline ([2]; 20 mg/kg ip, 40 minutes post carrageenan): −74.20 ± 7.72 grams
mean change from baseline ([2]; 20 mg/kg ip, 60 minutes post carrageenan): −130.80 ± 10.37 grams
mean change from baseline ([2]; 20 mg/kg ip, 80 minutes post carrageenan): −190.80 ± 10.37 grams
mean change from baseline ([2]; 20 mg/kg ip, 120 minutes post carrageenan): −255.40 ± 14.97 grams
decrease of median-effect dose (Dm) after co-administration compared to the monotherapy ([2]; median-effect model, prednisolone/nortriptyline 1:3 fixed ratios): 4 fold

Reference: US20080280862A1, “Methods, compositions, and kits for the treatment of pain” (priority 2007, published 2008)
